Experimental data as given in publication PMC6627558, “Structures and Bioactivities of Six New Triterpene Glycosides, Psolusosides E, F, G, H, H1, and I and the Corrected Structure of Psolusoside B from the Sea Cucumber Psolus fabricii” (Marine Drugs, 2019).

Legend:
[1] = test system: mouse erythrocytes; assay: Hemolytic activity against mouse erythrocytes; format: cell-based; settings: 24 h at 37 °C, read-out: Cytotoxicity EC50, Erhythrocytes (hemolytic activity)
Method: Blood was taken from CD-1 mice (18–20 g). The mice were anesthetized with diethyl ether, their chests were rapidly opened, and blood was collected in cold (4 °C) 10 mM phosphate-buffered saline, pH 7.4 (PBS) without anticoagulant. Erythrocytes were washed 3 times in PBS using at least 10 vol. of washing solution by centrifugation (2000 rpm) for 5 min. Erythrocytes were used at a concentration that provided an optical density of 1.0 at 700 nm for a non-hemolyzed sample. Then, 20 μL of a water solution of test substance with a fixed concentration was added to a well of a 96-well plate containing 180 μL of the erythrocyte suspension. Erythrocyte suspension was incubated with substances for 24 h at 37 °C. After that, the optical density of the obtained solutions was measured and ED50 for hemolytic activity of each compound was calculated.

[2] = test system: ascite form of mouse Ehrlich carcinoma cells; assay: Cytotoxic activity against ascite form of mouse Ehrlich carcinoma cells (nonspecific esterase / MTT assay); format: cell-based
Method: (§1) The museum tetraploid strain of murine ascite Ehrlich carcinoma cells from the All-Russian Oncology Center (Moscow, Russia) was used. The cells were separated from the ascites, which were collected on day 7 after inoculation in mouse CD-1 line. The cells were washed of the ascites triply and resuspended in RPMI-1640 medium containing 8 μg/mL gentamicin (BioloT, St-Petersburg, Russia). Neuroblastoma Neuro 2A cells were cultured in DMEM medium containing 10% fetal bovine serum (FBS), (BioloT, St-Petersburg, Russia) and normal epithelial JB-6 cells were cultured in DMEM medium containing 5% fetal bovine serum (FBS), (BioloT, St-Petersburg, Russia) and 1% penicillin/streptomycine (Invitrogen). The HT-29 (ATCC # HTB-38) human colon cancer cell line was grown in monolayer in McCoy’s 5A medium supplemented with 10% (v/v) heat-inactivated FBS, 2 mM L-glutamine, and 1% penicillin-streptomycin in a humidified atmosphere containing 5% CO2. Cells were maintained in a sterile environment and kept in an incubator at 5% CO2 and 37 °C to promote growth. HT-29 cells were sub-cultured every 3–4 days by rinsing with phosphate buffered saline (PBS), adding trypsin to detach the cells from the tissue culture flask, and transferring 10%–20% of the harvested cells to a new flask containing fresh growth media.
(§2) Cytotoxic activity against ascite form of mouse Ehrlich carcinoma cells was investigated by nonspecific esterase activity assay. In total, 10µL of the test substance solution and 100 μL of the cell suspension were placed into each well of a 96-well microplate. The plate was incubated in a CO2 incubator at 37 °C for 1 or 24 h. A stock solution of the probe fluorescein diacetate (FDA; Sigma, St. Louis, MO, USA) in DMSO (1 mg/mL) was prepared. After incubation of the cells with test compounds, 10 μL of FDA solution (50 μg/mL) was added to each well and the plate was incubated at 37 °C for 15 min. Cells were washed with PBS, and fluorescence was measured with a Fluoroskan Ascent plate reader (Thermo Labsystems, Helsinky, Finland) at λex = 485 nm and λem = 518 nm. All experiments were repeated in triplicate. Cytotoxic activity was expressed as the percent of cell viability. Nonspecific esterase activity assay has been used for determination of cytotoxicity against neuroblastoma Neuro 2A and normal epithelial JB-6 cells.
The solutions of tested substances in different concentrations (20 µL) and cell suspension (200 µL) were added in wells of 96-well plate and incubated over night at 37 °C and 5% CO2. After incubation, the cells were sedimented by centrifugation, 200 µL of medium from each well were collected, and 100 µL of pure medium were added. Then, 10 µL of MTT solution […] (Sigma, St. Louis, MO, USA) were added in each well. The plate was incubated for 4 h, after which 100 µL SDS-HCl were added to each well, and the plate was incubated at 37 °C for 4–18 h. Optical density was measured at 570 nm and 630–690 nm. Cytotoxic activity of the substances was calculated as the concentration that caused 50% metabolic cell activity inhibition (IC50). The MTT assay has been used for determination of cytotoxic activity against Ehrlich carcinoma cells.

[3] = test system: mouse neuroblastoma Neuro 2A cells; assay: Cytotoxicity against neuroblastoma Neuro 2A cells (nonspecific esterase activity assay); format: cell-based; settings: mouse neuroblastoma Neuro 2A cells
Method: as §1, §2

[4] = test system: normal epithelial JB-6 cells; assay: Cytotoxicity against normal epithelial JB-6 cells (nonspecific esterase activity assay); format: cell-based, mouse; settings: normal epithelial JB-6 cells
Method: as §1, §2

[5] = test system: human colorectal adenocarcinoma HT-29 cells; assay: MTS assay, cell viability of HT-29 cells; format: cell-based; settings: 0–20 μM, 24 h
Method: as §1
The HT-29 cells (1.0 × 10^4/well) were seeded in 96-well plates for 24 h at 37 °C in 5% CO2 incubator. The cells were treated with the tested substances at concentrations range from 0 to 20 μM for an additional 24 h. Subsequently, cells were incubated with 15 μL MTS reagent for 3 h and the absorbance in each well was measured at 490/630 nm using microplate reader “Power Wave XS” (Bio Tek, Winooski, VT, USA). All the experiments were repeated three times, and the mean absorbance values were calculated. The results are expressed as the percentage of inhibition that produced a reduction in absorbance by compound’s treatment compared to the non-treated cells (control).

[6] = test system: human colorectal adenocarcinoma HT-29 cells; assay: Soft agar assay, colony formation and growth of HT-29 cells; format: cell-based; settings: 0–10 μM, 14 days, read-out: Soft Agar Assay ICCF50 (inhibition of colony formation)
Method: as §1
The HT-29 cells (8.0 × 10^3) were seeded in 6-well plate and treated with the tested compounds at concentrations range 0–10 μM in 1 mL of 0.3% Basal Medium Eagle (BME) agar containing 10% FBS, 2mM L-glutamine, and 25 μg/mL gentamicin. The cultures were maintained at 37 °C in a 5% CO2 incubator for 14 days, and the cell’s colonies were scored using a microscope “Motic AE 20” (Scientific Instrument Company, Campbell, CA, USA) and the Motic Image Plus version 2.0 (Scientific Instrument Company, Campbell, CA, USA) computer program.

In the case of C=C(C)CCC[C@]1(C)OC(=O)[C@]23CC=C4[C@@H](CC[C@H]5C(C)(C)[C@@H](O[C@@H]6OC[C@@H](O)[C@H](O)[C@H]6O[C@@H]6O[C@H](C)[C@@H](O[C@@H]7O[C@H](COS(=O)(=O)[O-])[C@@H](O)[C@H](O[C@@H]8O[C@H](COS(=O)(=O)[O-])[C@@H](O)[C@H](OC)[C@H]8O)[C@H]7O)[C@H](O)[C@H]6O)CC[C@]45C)[C@]2(C)CC(=O)[C@@H]31.[Na+].[Na+] [Psolusoside A, 3β-O-[6-O-sodium sulfate-3-O-methyl-β-D-glucopyranosyl-(1→3)-6-O-sodium-sulfate-β-D-glucopyranosyl-(1→4)-β-D-quinovopyranosyl-(1→2)-β-D-xylopyranosyl]-16-ketoholosta-9(11),25-diene, reference compound], the EC50 [1] is reported as 1.4 µM, the “cytotoxic action against mouse Ehrlich carcinoma cells (in words)” value ([2]; ascite form) is reported as “moderate cytotoxic action” and the EC50 ([2]; ascite form of mouse Ehrlich carcinoma cells, read-out: Cytotoxicity EC50, Ehrlich carcinoma) is reported as 30.9 µM. For the same compound, the EC50 [3] was 2.9 µM, the EC50 [4] was 7.5 µM and the IC50 [5] was > 20 µM. For the same compound, the IC50 [6] was > 10 µM.
